Measured values reported in US20240287123A1 (Victoria Link Limited, priority 2021, published 2024).

Assay: Cytotoxicity in HFF cells (CellTiter-Glo), concurrent with HCMV assay
Format: cell-based
Details: human
Experimental: Human foreskin fibroblast (HFF) cells prepared from human foreskin tissue were obtained from the University of Alabama at Birmingham tissue procurement facility with approval from its IRB. The tissue was incubated at 4° C. for 4 h in Clinical Medium consisting of minimum essential media (MEM) with Earl's salts supplemented with 10% fetal bovine serum (FBS) (Hyclone, Inc. Logan UT), L-glutamine, fungizone, and vancomycin. Tissue was then placed in phosphate buffered saline (PBS), minced, rinsed to remove the red blood cells, and resuspended in trypsin/EDTA solution. The tissue suspension was incubated at 37° C. and gently agitated to disperse the cells, which were collected by centrifugation. Cells were resuspended in 4 ml Clinical Medium and placed in a 25 cm^2 flask and incubated at 37° C. in a humidified CO2 incubator for 24 h. The media was then replaced with fresh Clinical Medium and the cell growth was monitored daily until a confluent monolayer had formed. The HFF cells were then expanded through serial passages in standard growth medium of MEM with Earl's salts supplemented with 10% FBS, L-glutamine, penicillin, and gentamycin. The cells were passaged routinely and used for assays at or below passage ^10.37,38
Each experiment that evaluates the antiviral activity of compounds includes both positive and negative control compounds to ensure the performance of each assay. Concurrent assessment of cytotoxicity was also performed for each study in the same cell line and with the same compound exposure.
Assays were performed in monolayers as described.37 Cells were seeded in 384 well plates and incubated for 24 h to allow the formation of confluent monolayers. Dilutions of test drug were prepared directly in the plates and the monolayers infected at a predetermined MOI based on virus used. After incubation, cytopathology was determined by the addition of CellTiter-Glo (CTG) reagent. Concentrations of test compound sufficient to reduce CPE by 50% (EC50) or decrease cell viability by 50% (CC50) were interpolated using standard methods in Microsoft Excel. Toxicity was measured using CTG as above.

For `CC(C)C(=O)OCC1=C[C@@H](O)[C@H](n2ccc(N)nc2=O)O1` [Compound 8, 3′-Deoxy-3′,4′-didehydro-5′-O-isobutyroyl-cytidine], the CC50 was > 50 µM.
